Source: patent US20200179286A1, “CARRIER STRUCTURE AND DRUG CARRIER, AND PREPARING METHODS THEREOF” (GENE'E TECH CO., LTD., priority 2018, published 2020)
≈ marks a conversion by molar mass, not a printed value.

Tested on: H. pylori
Test: in vitro inhibition of H. pylori suspension (OD450 after 48 hours)
Assay type: cell-based
Settings: Helicobacter pylori, read-out: minimum inhibitory concentration
Method: FIGS. 7 and 8 show the results of the in vitro application of the drug carrier according to some embodiments of this invention. In the in vitro experiment, a suspension of H. pylori was obtained and respectively added with amoxicillin (with a minimum inhibitory concentration of about 0.5 μg/ml and the concentration was fixed at 0.5 μg/ml), samples 1, 5, A and E above. Next, the suspensions of H. pylori, after the addition of amoxicillin and the above samples, were further cultured for 48 hours, the OD450 of the suspension each was measured to determine the effect of inhibiting H. pylori. […] Through this test, it can be clearly seen that both the carrier structure and the drug carrier of the disclosure have the ability to inhibit H. pylori, especially the drug carrier with appropriate active substances has an obvious effect.

MIC: ~0.5 µg/mL (≈ 1.37 µM)
Structure (SMILES): CC1(C)S[C@@H]2[C@H](NC(=O)[C@H](N)c3ccc(O)cc3)C(=O)N2[C@H]1C(=O)O [amoxicillin]
